Measurements taken from ChEMBL document CHEMBL4024742, “Pharmaceutical Approaches to Target Antibiotic Resistance Mechanisms” (J Med Chem, 2017).
Values after ≈ are worked out from the molar mass of the structure shown.

What was measured:
[1] = test system: Staphylococcus epidermidis; test: Inhibition of biofilm formation in Staphylococcus epidermidis RP62A at 1.5 ug/ml after 24 hrs by MTT assay; format: functional
Staphylococcus aureus [2] = test: Inhibition of biofilm formation in Staphylococcus aureus ATCC 25923 at 1.5 ug/ml after 24 hrs by MTT assay; format: functional; details: ATCC 25923, 24 h
Staphylococcus aureus [3] = test: Inhibition of biofilm formation in Staphylococcus aureus ATCC 29213 at 1.5 ug/ml after 24 hrs by MTT assay; format: functional; details: ATCC 29213, 24 h
Staphylococcus aureus [4] = test: Inhibition of biofilm formation in Staphylococcus aureus ATCC 657 at 1.5 ug/ml after 24 hrs by MTT assay; format: functional; details: ATCC 657, 24 h
Staphylococcus aureus [5] = test: Inhibition of biofilm formation in Staphylococcus aureus ATCC 702 at 1.5 ug/ml after 24 hrs by MTT assay; format: functional; details: ATCC 702, 24 h
[6] = test system: Staphylococcus epidermidis; test: Inhibition of biofilm formation in Staphylococcus epidermidis DSM 3269 at 1.5 ug/ml after 24 hrs by MTT assay; format: functional; details: DSM 3269, 24 h
Escherichia coli [7] = test: Antimicrobial activity against Escherichia coli; format: functional
[8] = Inhibition of Escherichia coli PBP2
Pseudomonas aeruginosa = test: Antimicrobial activity against Pseudomonas aeruginosa; format: functional
Enterobacter [9] = test: Antimicrobial activity against Enterobacter; format: functional
[10] = Inhibition of bacterial AmpC using nitrocefin as substrate incubated for 5 mins followed by substrate addition by UV-vis spectrophotometer; set-up: species or system Bacteria
Staphylococcus aureus [11] = test: Antibiofilm activity against methicillin-resistant Staphylococcus aureus BAA-44 after 24 hrs by crystal violet staining based assay; format: functional; details: BAA-44, 24 h
Staphylococcus aureus [12] = test: Antibiofilm activity against methicillin-resistant Staphylococcus aureus BAA-44 at 100 uM after 24 hrs by crystal violet staining based assay; format: functional; details: BAA-44, 24 h
[13] = Inhibition of bacterial IMP-1 using nitrocefin as substrate; set-up: species or system Bacteria
Enterobacter [14] = test: Antibacterial activity against ESBL/KPC-producing Enterobacter assessed as potentiation of aztreonam induced-antimicrobial activity by measuring aztreonam MIC (Rvb > 16 ug/ml); format: functional
[15] = Inhibition of bacterial SHV by measuring nitrocefin degradation; set-up: species or system Bacteria
[16] = Inhibition of bacterial CTX-M by measuring nitrocefin degradation; set-up: species or system Bacteria
[17] = Inhibition of bacterial KPC by measuring nitrocefin degradation; set-up: species or system Bacteria
[18] = Inhibition of bacterial CMY by measuring nitrocefin degradation; set-up: species or system Bacteria
[19] = Inhibition of Escherichia coli KPC-2 using nitrocefin as substrate preincubated for 5 mins followed by substrate addition
[20] = Inhibition of Escherichia coli SHV-1 using nitrocefin as substrate preincubated for 5 mins followed by substrate addition
Staphylococcus aureus [21] = test: Inhibition of biofilm formation in Staphylococcus aureus ATCC 43866 at 25 ug/ml after 24 hrs by MTT assay; format: functional; details: ATCC 43866, 24 h
Staphylococcus aureus [22] = test: Antibacterial activity against planktonic Staphylococcus aureus ATCC 43866 after 24 hrs by broth microdilution method; format: functional; details: ATCC 43866, 24 h
[23] = test system: Staphylococcus epidermidis; test: Antibacterial activity against planktonic Staphylococcus epidermidis RP62A after 24 hrs by broth microdilution method; format: functional
Staphylococcus aureus [24] = test: Antibacterial activity against planktonic Staphylococcus aureus ATCC 29213 after 24 hrs by broth microdilution method; format: functional; details: ATCC 29213, 24 h
Escherichia coli [25] = test: Potentiation of cefotaxime induced-antimicrobial activity against Escherichia coli (reference value: 8 to 128 ug/ml); format: functional
[26] = Inhibition of bacterial AmpC; set-up: species or system Bacteria
Escherichia coli [27] = test: Antibacterial activity against multi drug-resistant Escherichia coli EM5 mutant after 24 hrs by serial dilution method; format: functional
Escherichia coli [28] = test: Antibacterial activity against multi drug-resistant Escherichia coli KG4 after 24 hrs by serial dilution method; format: functional; details: KG4, 24 h
Escherichia coli [29] = test: Antibacterial activity against multi drug-resistant Escherichia coli EM7 mutant after 24 hrs by serial dilution method; format: functional
Escherichia coli [30] = test: Antibacterial activity against multi drug-sensitive Escherichia coli MTCC 739 after 24 hrs by serial dilution method; format: functional; details: MTCC 739, 24 h
Escherichia coli [31] = test: Antibacterial activity against multi drug-resistant Escherichia coli KG1 after 24 hrs by serial dilution method; format: functional; details: KG1, 24 h
[32] = Inhibition of Mycobacterium tuberculosis Eis
[33] = target: T1, Quinolone resistance protein NorA (Staphylococcus aureus) (UniProt P0A0J7); test: Inhibition of Staphylococcus aureus 1199B NorA assessed as potentiation of ciprofloxacin-induced antibacterial activity by measuring fold reduction in ciprofloxacin MIC at 12.5 to 25 uM
T1 sequence (whole entry): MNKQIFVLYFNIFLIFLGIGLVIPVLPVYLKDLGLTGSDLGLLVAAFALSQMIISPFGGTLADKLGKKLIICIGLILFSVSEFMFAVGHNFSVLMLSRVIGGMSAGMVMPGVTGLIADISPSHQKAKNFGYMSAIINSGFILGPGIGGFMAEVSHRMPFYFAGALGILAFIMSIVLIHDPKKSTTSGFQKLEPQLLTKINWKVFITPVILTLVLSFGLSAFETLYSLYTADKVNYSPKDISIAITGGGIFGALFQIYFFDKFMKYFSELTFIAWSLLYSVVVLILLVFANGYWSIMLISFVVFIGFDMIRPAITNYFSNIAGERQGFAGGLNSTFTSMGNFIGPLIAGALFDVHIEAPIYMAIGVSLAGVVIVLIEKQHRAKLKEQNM

Escherichia coli [34] = test: Potentiation of tetracycline induced-antimicrobial activity against Escherichia coli assessed as fold reduction in tetracycline MIC at 25 ug/ml after 24 hrs by broth checkerboard method; format: functional

In the case of O=C(c1cc(Br)ccc1O)c1[nH]c(Cl)c(Br)c1Br, the inhibition at 1.5 µg/mL [1] is reported as > 60%, the inhibition at 1.5 µg/mL (Staphylococcus aureus [2]) is reported as > 60% and the inhibition at 1.5 µg/mL (Staphylococcus aureus [3]) is reported as > 60%. The inhibition at 1.5 µg/mL (Staphylococcus aureus [4]) was > 60%, the inhibition at 1.5 µg/mL (Staphylococcus aureus [5]) was > 60% and the inhibition at 1.5 µg/mL [6] was > 60%.

For O=C(NOC1CCNC1)[C@@H]1CC[C@@H]2CN1C(=O)N2OS(=O)(=O)[O-].[Na+] (stereo partly specified), the MIC (Escherichia coli [7]) was ≤ 2 µg/mL, the IC50 [8] was 16 µM and the MIC (Pseudomonas aeruginosa) was ≤ 2 µg/mL. For the same compound, the MIC (Enterobacter [9]) was ≤ 2 µg/mL.

Compound O=C(Cc1cccs1)N[C@H](B(O)O)c1cccc(C(=O)O)c1 has a Ki [10] of 1 nM.

With C/C(=C\c1cccc2ccccc12)Cn1cc(CCCCCc2c[nH]c(N)n2)nn1 the IC50 (Staphylococcus aureus [11]) was 9.86 µM and the inhibition at 100 µM (Staphylococcus aureus [12]) was > 94%.

O=C(c1cc(Br)cc(Br)c1O)c1[nH]c(Br)c(Br)c1Br showed an inhibition at 1.5 µg/mL [1] of 68.5 to 100%, an inhibition at 1.5 µg/mL (Staphylococcus aureus [2]) of 68.5 to 100% and an inhibition at 1.5 µg/mL (Staphylococcus aureus [3]) of 68.5 to 100%. The inhibition at 1.5 µg/mL (Staphylococcus aureus [4]) was 68.5 to 100%, the inhibition at 1.5 µg/mL (Staphylococcus aureus [5]) was 68.5 to 100% and the inhibition at 1.5 µg/mL [6] was 68.5 to 100%.

With O=C(c1cc(Br)ccc1O)c1[nH]c(Br)c(Cl)c1Br the inhibition at 1.5 µg/mL [1] was > 60%, the inhibition at 1.5 µg/mL (Staphylococcus aureus [2]) was > 60% and the inhibition at 1.5 µg/mL (Staphylococcus aureus [3]) was > 60%. For the same compound, the inhibition at 1.5 µg/mL (Staphylococcus aureus [4]) was > 60%, the inhibition at 1.5 µg/mL (Staphylococcus aureus [5]) was > 60% and the inhibition at 1.5 µg/mL [6] was > 60%.

O=C(O)[C@H](Cc1ccc2c(c1)OCO2)[C@@H](Cc1ccc2c(c1)OCO2)C(=O)O showed an IC50 [13] of 210 nM.

For NC(=O)[C@@H]1CC[C@@H]2CN1C(=O)N2OS(=O)(=O)[O-].[Na+] [AVIBACTAM SODIUM], the IC50 [8] was 63 µM and the MIC (Enterobacter [14]) was < 4 µg/mL.

For O=C(O)C[C@@H]1CC[C@H](NC(=O)Cc2cccs2)B(O)O1 [VABORBACTAM], the Ki [15] was 29 to 99 nM, the Ki [16] was 29 to 99 nM and the Ki [17] was 29 to 99 nM. It also gave a Ki [18] of 29 to 99 nM.

With O=C(Cc1cccs1)NC(Cn1cc(C(=O)O)nn1)B(O)O (stereo unspecified) the IC50 [19] was 84 nM and the IC50 [20] was 130 nM.

In the case of Cc1nn(C)c([N-]C(=O)c2ccc(Cl)cc2)c1[N+]#N, the inhibition at 25 µg/mL (Staphylococcus aureus [21]) is reported as 69 to 96%, the MIC (Staphylococcus aureus [22]) is reported as 1.5 to 12.5 µg/mL (≈ 5.44 to 45.3 µM) and the MIC [23] is reported as 1.5 to 12.5 µg/mL (≈ 5.44 to 45.3 µM). It also gave an MIC (Staphylococcus aureus [24]) of 1.5 to 12.5 µg/mL (≈ 5.44 to 45.3 µM).

For O=S(=O)(NCB(O)O)c1ccc(-c2nnn[nH]2)nc1, the MIC (Escherichia coli [25]) was 0.5 to 1 µg/mL and the Ki [26] was 0.8 nM.

In the case of CCCCCCCCCCCCCCCC(=O)O[C@H]1CCC(=O)c2ccccc21 [4-O-PALMITOYL-ALPHATETRALONE], the MIC (Escherichia coli [27]) is reported as 250 to 1000 µg/mL (≈ 624 to 2500 µM), the MIC (Escherichia coli [28]) is reported as 250 to 1000 µg/mL (≈ 624 to 2500 µM) and the MIC (Escherichia coli [29]) is reported as 250 to 1000 µg/mL (≈ 624 to 2500 µM). The MIC (Escherichia coli [30]) was 250 to 1000 µg/mL (≈ 624 to 2500 µM) and the MIC (Escherichia coli [31]) was 250 to 1000 µg/mL (≈ 624 to 2500 µM).

With O=S(=O)(NCB(O)O)c1ccc(-c2nnn[nH]2)cc1C(F)(F)F the Ki [26] was 0.05 nM.

O=C(c1cc(Cl)cc(Cl)c1O)c1[nH]c(Br)c(Br)c1Br showed an inhibition at 1.5 µg/mL [1] of 67.9 to 86.7%, an inhibition at 1.5 µg/mL (Staphylococcus aureus [2]) of 67.9 to 86.7% and an inhibition at 1.5 µg/mL (Staphylococcus aureus [3]) of 67.9 to 86.7%. For the same compound, the inhibition at 1.5 µg/mL (Staphylococcus aureus [4]) was 67.9 to 86.7%, the inhibition at 1.5 µg/mL (Staphylococcus aureus [5]) was 67.9 to 86.7% and the inhibition at 1.5 µg/mL [6] was 67.9 to 86.7%.

For O=C(C[n+]1ccn2cccc2c1-c1ccccc1)c1ccccc1, the IC50 [32] was 188 nM.

Work on COc1cc(CNC(=O)CCCC/C=C/C(C)C)ccc1O yielded a fold change (FC) [33] of 2 to 4.

With O=C(c1cc(Cl)cc(Cl)c1O)c1[nH]c(Cl)c(Cl)c1Cl the inhibition at 1.5 µg/mL [1] was > 60%, the inhibition at 1.5 µg/mL (Staphylococcus aureus [2]) was > 60% and the inhibition at 1.5 µg/mL (Staphylococcus aureus [3]) was > 60%. The inhibition at 1.5 µg/mL (Staphylococcus aureus [4]) was > 60%, the inhibition at 1.5 µg/mL (Staphylococcus aureus [5]) was > 60% and the inhibition at 1.5 µg/mL [6] was > 60%.

With COc1cc(C(=O)O[C@H]2CCC(=O)c3ccccc32)cc(OC)c1OC [4-O-(3,4,5-TRIMETHOXYBENZOYL)-ALPHA-TETRALONE] the MIC (Escherichia coli [27]) was 250 to 1000 µg/mL (≈ 702 to 2810 µM), the MIC (Escherichia coli [28]) was 250 to 1000 µg/mL (≈ 702 to 2810 µM) and the MIC (Escherichia coli [29]) was 250 to 1000 µg/mL (≈ 702 to 2810 µM). For the same compound, the MIC (Escherichia coli [30]) was 250 to 1000 µg/mL (≈ 702 to 2810 µM), the “fold change (FC)” value (Escherichia coli [34]) was 8 and the MIC (Escherichia coli [31]) was 250 to 1000 µg/mL (≈ 702 to 2810 µM).
